The results in this text go back to patent publication US11879021B2, “Cyclic peptides and uses thereof” (UNIVERSITÉ DE MONTRÉAL, priority 2016, dated 2024).

The target in the experiment is T1, CD36 (Rattus norvegicus, UniProt Q07969).
T1 construct: from tissue; host or cells: Heart (cardiac membranes) of Sprague Dawley rats from Charles River
In words: Competition binding of photoactivatable [125I]-Tyr-Bpa-Ala-Hexarelin to CD36 in rat cardiac membranes. Conditions: competition with [125I]-Tyr-Bpa-Ala-Hexarelin, rat heart membranes; read-out: IC50 (μM), binding affinity for CD36. As to the method: Hearts from Sprague Dawley rats (300-325 g) from Charles River were cut into small pieces and homogenized with a Polytron® at low speed, 3×15 sec in buffer A (10 mM NaHCO3, 5 mM NaN3, 10 μM Pefabloc®, 0.1 μM Aprotinin, 1 μM Pepstatin A, 1 μM Leupeptin, pH 7.0) at a concentration of […] of tissue. The homogenate was first centrifuged at 8,700×g for 20 min in a Sorvall® centrifuge and the supernatant was collected on ice. The pellet was resuspended and re-homogenized with a Glass-Teflon® Potter by 5 strokes. This homogenate was recentrifuged at 8,700×g for 10 min and the resulting supernatant was combined with the first collected supernatant. The combined supernatant was centrifuged at 35,000×g for 20 min. The pellet fraction obtained was resuspended in Buffer B (20 mM Tris-maleate, 0.6M KCl, pH 6.8) in a volume corresponding to 20 mL/g of fresh tissue using a glass homogenizer with a Teflon pestle. The resulting suspension was centrifuged again at 35,000×g for 60 min. and the pellet fraction obtained was resuspended in Buffer C (10 mM Tris/HCl buffer pH 7.4) and thoroughly homogenized in a glass with a Teflon® pestle (20 ml/g of fresh tissue). This suspension was submitted to another centrifugation at 35,000×g for 60 min. The collected pellet was resuspended in 50 mM Tris/HCl buffer pH 7.4) containing 2 mM EGTA in a final volume corresponding to 1-2 mL/g of fresh tissue. The membrane preparation obtained was frozen at −80° C. Protein concentration was determined using the bicinchoninic acid (BCA) method, employing BSA as standard.
The reaction was started by adding 3 nmol of H2O2 for 5 min at room temperature. This step was repeated twice with a period of 5 min of incubation for each addition. The reaction was stopped by diluting the mixture with 1 mL of 0.1% TFA. The radioiodinated peptide was purified by HPLC on a reverse-phase Vydac® C18 column with a 60-min linear gradient from 20% to 50% of acetonitrile in 0.1% TFA. The eluted radiolabelled tracer was collected, aliquoted (50×10^6 cpm/fraction) and stored at −80° C.
Binding studies with MPE-298 were done with increasing concentrations from 0.01 to 5 μM of competition ligands. Nonspecific binding was defined as binding not displaced by 50 μM corresponding peptide. All peptide containing solutions were diluted in Buffer B. Buffer A and B were degassed under vacuum, and used in capped tubes in order to minimize lipid peroxidation. Before the incubation period, all tubes were put under a low flow of nitrogen. All material was kept on ice and the binding assay was performed in darkness. After an incubation period of 60 min at 22° C. (vortexing every 15 min), membranes were submitted to irradiation with UV lamps (365 nm) for 15 min at 4° C. After centrifugation at 12,000×g for 15 minutes, the pellets were resuspended in 40 μl of sample buffer (62 mM Tris-HCl, pH 6.8, 2% SDS, 10% glycerol, 15% 2-mercaptoethanol, and 0.05% bromophenol blue), and boiled for 5 min prior to being subjected to electrophoresis. Proteins (50 μg/40 μl) were separated on a 7.5% SDS-PAGE Bio-Rad® Mini-Protean electrophoresis system (150 V for 1 h). The gels resulting from SDS/PAGE were fixed, colored in Coomassie Brilliant Blue R-250, dried, exposed to a storage phosphor intensifying screen (Amersham Biosciences), and analysed using a Typhoon® PhosphorImager (GE Healthcare Life Sciences®). […] The curves were analysed by using software package (Graphpad® prism version 7.0).

T1 sequence (Q07969 whole entry): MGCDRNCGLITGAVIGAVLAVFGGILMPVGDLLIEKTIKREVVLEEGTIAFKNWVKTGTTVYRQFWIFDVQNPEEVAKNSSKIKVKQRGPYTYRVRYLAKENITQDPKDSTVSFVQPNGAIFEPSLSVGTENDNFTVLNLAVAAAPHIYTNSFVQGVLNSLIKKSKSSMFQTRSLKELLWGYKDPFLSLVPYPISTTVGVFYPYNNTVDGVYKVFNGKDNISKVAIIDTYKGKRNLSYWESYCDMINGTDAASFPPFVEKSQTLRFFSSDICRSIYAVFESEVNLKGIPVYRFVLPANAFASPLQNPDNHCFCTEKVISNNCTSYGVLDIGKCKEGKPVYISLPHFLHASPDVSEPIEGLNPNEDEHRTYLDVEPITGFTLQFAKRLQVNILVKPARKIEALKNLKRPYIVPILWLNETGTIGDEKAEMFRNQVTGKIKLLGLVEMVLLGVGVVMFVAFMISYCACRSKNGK

As to `C=CCN1CC#CCN(NC(=O)[C@H](C)N)C(=O)N[C@H](Cc2c[nH]c3ccccc23)C(=O)N[C@@H](C)C(=O)N[C@@H](Cc2c[nH]c3ccccc23)C(=O)N[C@H](Cc2ccccc2)C(=O)N[C@H](C(N)=O)CCCC1` [MPE-298], the IC50 is 0.07 µM.

Usually IC50 stands for the concentration that gives 50% inhibition.
